Assay results: US10654917B2, “Antibody molecules and peptide delivery systems for use in alzheimer's disease and related disorders” (TECHNOPHAGE, INVESTIGAÇĀO E DESENVOLVIMENTO EM …, priority 2015, dated 2020)
Like-named read-outs stand apart in the source and are kept apart here. Residues, ends and D or L forms follow the SMILES beside them. *: point of attachment. X1 = Cc1nn(CCN(CCN)CCCC(=O)*)c(C)c1CC(=O)O

Experiments:
[1] = Partition coefficient (log Po/w) of radiopeptides; assay type: physicochemical
Excerpt: Table 7 lists each peptide's name, isoelectric point (PI), charge (number of positive residues), calculated mass (in Da), and ion found; as well as the name, calculated mass, and found ion for the corresponding conjugate; and also retention times in HPLC and the partition coefficient (log Po/w). These values allowed the determination of the hydrophilic nature of peptides, where pepH1 and pepH4 were identified as the most hydrophilic peptides.

[2] = Biodistribution of technetium-labelled peptides; assay type: in vivo, CD1 mice
Experimental: To evaluate the capacity to cross the BBB in vivo, the selected peptides, pepH1 and pepH3, were analyzed for biodistribution in CD1 mice. The peptides were labelled with technetium at a final concentration of 8.5×10^−5 M and diluted in PBS. CD1 mice were injected (iv injection, tail vein). The mice were sacrificed by cervical dislocation after 5 and 60 minutes of incubation. The tissues of interest were dissected and washed to remove excess blood, weighed, and measured for radioactivity. Technetium radioactivity of the different peptides was measured for different organs.
Initial results are presented in Table 11, where “% I.A. refers to the “% injected activity”, that is, the amount of radioactivity measured in a given organ compared to the total originally injected.
The biodistribution studies were repeated, using higher doses of each peptide, specifically, a one hundred fold increase, as well as using PepH2 as a negative control, and allowing incubation for 2 minutes and 60 minutes. Tissue biodistribution profile in percentage of injected radiopeptide activity per gram of tissue/organ was measured and results are presented in Table 12.

Cc1nn(CCN(CCN)CCCC(=O)N[C@H](C(=O)N[C@@H](CCC(N)=O)C(=O)N[C@@H](CCC(N)=O)C(=O)N[C@@H](CC(C)C)C(=O)N[C@H](C(=O)N[C@@H](CCCCN)C(=O)N[C@@H](CCCNC(=N)N)C(=O)N[C@@H](Cc2ccccc2)C(=O)N[C@@H](CO)C(=O)N[C@@H](CC(C)C)C(=O)O)[C@@H](C)O)C(C)C)c(C)c1CC(=O)O [^99mTc(CO)3-Pz^1-pepH1, metal not drawn] (X1-VQQLTKRFSL-OH; C-terminus assumed)
log Po/w of radiopeptides [1]: −1.76 ± 0.11 | injected activity in Blood ([2]; 140 μg/mouse, 1 hour): 1.0 ± 0.2 % I.A./g | injected activity in Bone ([2]; 140 μg/mouse, 1 hour): 0.16 ± 0.01 % I.A./g | injected activity in Brain ([2]; 140 μg/mouse, 1 hour): 0.03 ± 0.00 % I.A./g | injected activity in Heart ([2]; 140 μg/mouse, 1 hour): 0.39 ± 0.02 % I.A./g | injected activity in Intestine ([2]; 140 μg/mouse, 1 hour): 13.0 ± 2.0 % I.A./g | injected activity in Kidney ([2]; 140 μg/mouse, 1 hour): 1.6 ± 0.3 % I.A./g | injected activity in Liver ([2]; 140 μg/mouse, 1 hour): 2.4 ± 1.0 % I.A./g | injected activity in Lung ([2]; 140 μg/mouse, 1 hour): 1.4 ± 0.3 % I.A./g | injected activity in Muscle ([2]; 140 μg/mouse, 1 hour): 0.2 ± 0.0 % I.A./g | injected activity in Spleen ([2]; 140 μg/mouse, 1 hour): 0.22 ± 0.01 % I.A./g | injected activity in Stomach ([2]; 140 μg/mouse, 1 hour): 0.31 ± 0.08 % I.A./g | tissue uptake at 2 min ([2]; CD1, blood, iv, 140 ug/mouse, total radioactivity, 140 μg/mouse, 2 min, read-out: injected activity in Blood): 3.1 ± 0.5 %ID/g | tissue uptake at 2 min ([2]; CD1, bone, iv, 140 ug/mouse, total radioactivity, 140 μg/mouse, 2 min, read-out: injected activity in Bone): 0.6 ± 0.2 %ID/g | tissue uptake at 2 min ([2]; CD1, brain, iv, 140 ug/mouse, total radioactivity, 140 μg/mouse, 2 min, read-out: injected activity in Brain): 0.11 ± 0.02 %ID/g | tissue uptake at 2 min ([2]; CD1, heart, iv, 140 ug/mouse, total radioactivity, 140 μg/mouse, 2 min, read-out: injected activity in Heart): 1.1 ± 0.4 %ID/g | dose excreted at 2 min ([2]; CD1, in vivo, iv, 140 ug/mouse, total radioactivity, 140 μg/mouse, 2 min, read-out: Excretion): 17.1 ± 7.9% | dose excreted at 1 h ([2]; CD1, in vivo, iv, 140 ug/mouse, total radioactivity, 140 μg/mouse, 1 hour, read-out: Excretion): 32.7 ± 0.2% | tissue uptake at 2 min ([2]; CD1, intestine, iv, 140 ug/mouse, total radioactivity, 140 μg/mouse, 2 min, read-out: injected activity in Intestine): 3.8 ± 2.3 %ID/g | tissue uptake at 2 min ([2]; CD1, kidney, iv, 140 ug/mouse, total radioactivity, 140 μg/mouse, 2 min, read-out: injected activity in Kidney): 14.6 ± 8.2 %ID/g | tissue uptake at 2 min ([2]; CD1, liver, iv, 140 ug/mouse, total radioactivity, 140 μg/mouse, 2 min, read-out: injected activity in Liver): 7 ± 1.1 %ID/g | tissue uptake at 2 min ([2]; CD1, lung, iv, 140 ug/mouse, total radioactivity, 140 μg/mouse, 2 min, read-out: injected activity in Lung): 2.6 ± 0.5 %ID/g | tissue uptake at 2 min ([2]; CD1, muscle, iv, 140 ug/mouse, total radioactivity, 140 μg/mouse, 2 min, read-out: injected activity in Muscle): 0.6 ± 0.2 %ID/g | tissue uptake at 2 min ([2]; CD1, spleen, iv, 140 ug/mouse, total radioactivity, 140 μg/mouse, 2 min, read-out: injected activity in Spleen): 0.7 ± 0.2 %ID/g | tissue uptake at 2 min ([2]; CD1, stomach, iv, 140 ug/mouse, total radioactivity, 140 μg/mouse, 2 min, read-out: injected activity in Stomach): 0.7 ± 0.4 %ID/g | tissue uptake at 5 min ([2]; mouse, blood, 10 ug, total radioactivity, CD1 mice, iv, 5 min, 10 μg, read-out: injected activity in Blood): 3.1 ± 0.5 %ID/g | tissue uptake at 1 h ([2]; mouse, blood, 10 ug, total radioactivity, CD1 mice, iv, 1 hour, 10 μg, read-out: injected activity in Blood): 1 ± 0.2 %ID/g | tissue uptake at 5 min ([2]; mouse, bone, 10 ug, total radioactivity, CD1 mice, iv, 5 min, 10 μg, read-out: injected activity in Bone): 0.6 ± 0.2 %ID/g | tissue uptake at 1 h ([2]; mouse, bone, 10 ug, total radioactivity, CD1 mice, iv, 1 hour, 10 μg, read-out: injected activity in Bone): 0.16 ± 0.01 %ID/g | tissue uptake at 5 min ([2]; mouse, brain, 10 ug, total radioactivity, CD1 mice, iv, 5 min, 10 μg, read-out: injected activity in Brain): 0.11 ± 0.02 %ID/g | tissue uptake at 1 h ([2]; mouse, brain, 10 ug, total radioactivity, CD1 mice, iv, 1 hour, 10 μg, read-out: injected activity in Brain): 0.03 %ID/g | tissue uptake at 5 min ([2]; mouse, heart, 10 ug, total radioactivity, CD1 mice, iv, 5 min, 10 μg, read-out: injected activity in Heart): 1.1 ± 0.4 %ID/g | tissue uptake at 1 h ([2]; mouse, heart, 10 ug, total radioactivity, CD1 mice, iv, 1 hour, 10 μg, read-out: injected activity in Heart): 0.39 ± 0.02 %ID/g | percent of injected dose excreted at 5 min ([2]; mouse, in vivo, 10 ug, total radioactivity, CD1 mice, iv, 5 min, 10 μg, read-out: Excretion): 17.1 ± 7.9 %ID | percent of injected dose excreted at 1 h ([2]; mouse, in vivo, 10 ug, total radioactivity, CD1 mice, iv, 1 hour, 10 μg, read-out: Excretion): 32.7 ± 0.2 %ID | tissue uptake at 5 min ([2]; mouse, intestine, 10 ug, total radioactivity, CD1 mice, iv, 5 min, 10 μg, read-out: injected activity in Intestine): 3.8 ± 2.3 %ID/g | tissue uptake at 1 h ([2]; mouse, intestine, 10 ug, total radioactivity, CD1 mice, iv, 1 hour, 10 μg, read-out: injected activity in Intestine): 13 ± 2 %ID/g | tissue uptake at 5 min ([2]; mouse, kidney, 10 ug, total radioactivity, CD1 mice, iv, 5 min, 10 μg, read-out: injected activity in Kidney): 14.6 ± 8.2 %ID/g | tissue uptake at 1 h ([2]; mouse, kidney, 10 ug, total radioactivity, CD1 mice, iv, 1 hour, 10 μg, read-out: injected activity in Kidney): 1.6 ± 0.3 %ID/g | tissue uptake at 5 min ([2]; mouse, liver, 10 ug, total radioactivity, CD1 mice, iv, 5 min, 10 μg, read-out: injected activity in Liver): 7 ± 1.1 %ID/g | tissue uptake at 1 h ([2]; mouse, liver, 10 ug, total radioactivity, CD1 mice, iv, 1 hour, 10 μg, read-out: injected activity in Liver): 2.4 ± 1 %ID/g | tissue uptake at 5 min ([2]; mouse, lung, 10 ug, total radioactivity, CD1 mice, iv, 5 min, 10 μg, read-out: injected activity in Lung): 2.6 ± 0.5 %ID/g | tissue uptake at 1 h ([2]; mouse, lung, 10 ug, total radioactivity, CD1 mice, iv, 1 hour, 10 μg, read-out: injected activity in Lung): 1.4 ± 0.3 %ID/g | tissue uptake at 5 min ([2]; mouse, muscle, 10 ug, total radioactivity, CD1 mice, iv, 5 min, 10 μg, read-out: injected activity in Muscle): 0.6 ± 0.2 %ID/g | tissue uptake at 1 h ([2]; mouse, muscle, 10 ug, total radioactivity, CD1 mice, iv, 1 hour, 10 μg, read-out: injected activity in Muscle): 0.2 %ID/g | tissue uptake at 5 min ([2]; mouse, pancreas, 10 ug, total radioactivity, CD1 mice, iv, 5 min, 10 μg, read-out: injected activity in Pancreas): 0.8 ± 0.2 %ID/g | tissue uptake at 1 h ([2]; mouse, pancreas, 10 ug, total radioactivity, CD1 mice, iv, 1 hour, 10 μg, read-out: injected activity in Pancreas): 0.41 ± 0.01 %ID/g | tissue uptake at 5 min ([2]; mouse, spleen, 10 ug, total radioactivity, CD1 mice, iv, 5 min, 10 μg, read-out: injected activity in Spleen): 0.7 ± 0.2 %ID/g | tissue uptake at 1 h ([2]; mouse, spleen, 10 ug, total radioactivity, CD1 mice, iv, 1 hour, 10 μg, read-out: injected activity in Spleen): 0.22 ± 0.01 %ID/g | tissue uptake at 5 min ([2]; mouse, stomach, 10 ug, total radioactivity, CD1 mice, iv, 5 min, 10 μg, read-out: injected activity in Stomach): 0.7 ± 0.4 %ID/g | tissue uptake at 1 h ([2]; mouse, stomach, 10 ug, total radioactivity, CD1 mice, iv, 1 hour, 10 μg, read-out: injected activity in Stomach): 0.31 ± 0.08 %ID/g
